Assay results as given in paper PMC12691635 (Antimicrobial Agents and Chemotherapy, 2025).

Legend:
[1] = cited from earlier work
Method: Our observations were best described by a one-compartment model, which is in accordance with the sparse data gathered from routine clinical practice ([40]). […] A potential explanation is that the studies that report higher CL were performed ...

[2] = system: chronic prosthetic joint infections caused by Gram-positive bacteria; assay: Microbiological and clinical cure after two-stage exchange with a single 1,500 mg dose; type: in vivo, human
clinical = conditions: human, in vivo, iv, 1500 mg
Method: Blood samples obtained during the follow-up visits were processed immediately after extraction, centrifuged at 3,000 g for 10 min and frozen at −80°C until bioanalysis.

[3] = Population pharmacokinetic analysis (Monolix); type: in vivo, human
Method: The non-linear mixed-effect modeling software Monolix 2024R1 (Lixoft SAS, a Simulations Plus company) implementing the stochastic approximation expectation maximization algorithm was used for model development ([18]).
One- and multicompartment models with first-order elimination were tested. All individual parameters were assumed to be log-normally distributed. Inter-individual variability (IIV) was described using an exponential model. To describe residual variability, several error models (constant, proportional, or combined error model) were tested. The most appropriate structural model was selected based on the following criteria: Akaike information criterion, corrected Bayesian information criterion, usual goodness-of-fit plots, and relative standard errors. […] Model internal validation was based on goodness-of-fit plots, including observations versus individual (IPRED) and population predictions (PRED) and plots of normalized prediction distribution error (NPDE) versus PRED and time. A prediction-corrected visual predictive check (pc-VPC) was performed using 500 simulations with the final model ([21]), and non-parametric bootstrapping (n = 1,000) was used for assessing stability and robustness of the final model using Monolix 2024R1.

[4] = single 1,000 mg dose, 2 weeks post-administration, non-infected patients undergoing elective orthopedic surgery; cited from earlier work
Excerpt: Assessment of optimal antibiotic exposure at the site of the infection is challenging, especially for deep-seated infections, such as bone and joint, and often unbound plasma exposure is used as a worst-case scenario surrogate for target site exposure assuming that only the free (unbound) concentration can distribute to peripheral tissues ([37]). However, drug PK in the peripheral tissues depends not only on protein binding but also on other characteristics, such as drug’s molecular weight and physiochemistry, varying broadly across antibiotic classes ([38]). For dalbavancin, Dunne et al. perf ...

[5] = Adverse events attributable to dalbavancin during follow-up; type: in vivo, human; conditions: single 1,500 mg i.v. dose, over administration and during follow-up, including changes in renal function; 20 patients
[6] = non-parametric bootstrap n = 1,000
[7] = one-compartment model, total concentrations, 18 patients with CPJI, single 1,500 mg i.v.

CN[C@H]1C(=O)N[C@@H]2Cc3ccc(cc3)Oc3cc4cc(c3O[C@@H]3O[C@H](C(=O)O)[C@@H](O)[C@H](O)[C@H]3NC(=O)CCCCCCCCC(C)C)Oc3ccc(cc3Cl)[C@@H](O)[C@@H]3NC(=O)[C@H](NC(=O)[C@@H]4NC(=O)[C@@H](NC2=O)c2cc(cc(O)c2Cl)Oc2cc1ccc2O)c1ccc(O)c(c1)-c1c(O[C@H]2O[C@H](CO)[C@@H](O)[C@H](O)[C@@H]2O)cc(O)cc1[C@@H](C(=O)NCCCN(C)C)NC3=O [dalbavancin]
CL reported in healthy volunteers and patients with acute infections [1]: 0.050 L/h
Clinical failures or relapses ([2]; median follow-up of 693 days (IQI 630–824) after the second-stage procedure): no clinical failures or relapses
Second-stage surgery isolates ([2]; patient 2, hip, first-stage S. lugdunensis, after Daptomycin (4)-Cefazolin (7) days): No growth
Second-stage surgery isolates ([2]; patient 3, hip, first-stage E. faecalis, after Daptomycin (4)-Ampicillin (7) days): No growth
Second-stage surgery isolates ([2]; patient 4, hip, first-stage S. hominis, after Vancomycin (6)-Linezolid (9) days): No growth
Second-stage surgery isolates ([2]; patient 5, hip, first-stage S. epidermidis, after Daptomycin (10) days): No growth
Second-stage surgery isolates ([2]; patient 6, hip, first-stage S. epidermidis, after Vancomycin (13)-Daptomycin (3) days): No growth
Second-stage surgery isolates ([2]; patient 7, shoulder, first-stage S. epidermidis, after Vancomycin (3)-Daptomycin (5) days): No growth
Second-stage surgery isolates ([2]; patient 8, knee, first-stage C. acnes, after Vancomycin (8) days): No growth
Second-stage surgery isolates ([2]; patient 9, hip, first-stage S. epidermidis, after Vancomycin (20) days): No growth
Second-stage surgery isolates ([2]; patient 10, hip, first-stage S. epidermidis, C. acnes, after Vancomycin (3)-Daptomycin (9) days): No growth
Second-stage surgery isolates ([2]; patient 11, knee, first-stage S. epidermidis, after Vancomycin (7) days): No growth
Second-stage surgery isolates ([2]; patient 12, knee, first-stage C. acnes, after Vancomycin (3)-Linezolid (5) days): No growth
Second-stage surgery isolates ([2]; patient 13, knee, first-stage S. epidermidis, after Vancomycin (10) days): No growth
Second-stage surgery isolates ([2]; patient 14, knee, first-stage S. epidermidis, after Vancomycin (7)-Linezolid (5) days): No growth
Second-stage surgery isolates ([2]; patient 15, hip, first-stage S. capitis, C. acnes, after Vancomycin (7)-Daptomycin (10) days): No growth
Second-stage surgery isolates ([2]; patient 16, knee, first-stage S. capitis, S. pettenkoferi, after Vancomycin (5)-Daptomycin (7) days): No growth
Second-stage surgery isolates ([2]; patient 17, shoulder, first-stage C. acnes, after Vancomycin (10) days): S. epidermidis S. hominis
Second-stage surgery isolates ([2]; patient 18, hip, first-stage S. epidermidis, after Vancomycin (10)-Linezolid (13) days): No growth
Second-stage surgery isolates ([2]; patient 19, hip, first-stage S. epidermidis, C. acnes, after Vancomycin (4)-Tedizolid (14) days): No growth
Second-stage surgery isolates ([2]; patient 20, hip, first-stage S. epidermidis, after Daptomycin (12) days): No growth
Microbiological cure rate ([2]; single 1,500 mg i.v. dose after median 11.5 days systemic antibiotics, vancomycin-gentamicin spacer, negative intraoperative cultures at second-stage surgery): 94.7%
level at 336 h (clinical): 58.5 µg/mL
level at 504 h (clinical): 29700 ng/mL
level at 672 h (clinical): 13300 ng/mL
CL, clearance, bootstrap median (95% CI) [3, 6]: 0.037 (0.031–0.043) L/h
V, volume of distribution, bootstrap median (95% CI) [3, 6]: 18.0 (16.0–20.3) L
CL, clearance, estimate (% RSE) [3, 7]: 0.036 (8.2 %) [12.6%] L/h
V, volume of distribution, estimate (% RSE) [3, 7]: 17.9 (6.2 %) [18.1%] L
Measured amount in homogenized cortical bone [4]: 4.1 µg/g
Adverse events [5]: No adverse events were reported
